# Laboratory results: patent US20050101595A1, “N-containing cycloalkyl-substituted amino-thiazole derivatives and pharmaceutical compositions for inhibiting cell proliferation and methods for their use” (PFIZER INC., priority 2003, published 2005)
# Counter-ions that a name gives are not always drawn. Like-named read-outs stand apart in the source and are kept apart here.
# Legend:
# [1] = biological target: CDK2/Cyclin A (Homo sapiens, UniProt P24941); test: Inhibition of CDK2/Cyclin A Retinoblastoma Kinase Activity; format: biochemical; settings: for Ki: apparent Ki, CDK2/proteolyzed cyclin A, Rb fragment substrate, 25 μM ATP; for CDK2 % Inhibition At 0.03 μM: Table 2
# Procedure, shortened: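 CDK2 (10 or 19 nM), insect-cell expressed, gel-filtration purified with truncated cyclin A; Rb fragment substrate; 25 μM ATP; 10 mM HEPES pH 7.4, 10 mM MgCl2; 30° C, 60 or 75 min; EDTA stop; phosphocellulose/nitrocellulose capture, phosphorimager. % inhibition vs DMSO control, no-enzyme background subtracted.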
# [2] = biological target: human CDK4 and genetically truncated (1-264) cyclin D3 (Homo sapiens, UniProt P11802); test: Inhibition of CDK4/Cyclin D Retinoblastoma Kinase Activity; format: biochemical; settings: for Ki: apparent Ki, CDK4/truncated cyclin D3, Rb fragment substrate, 25 μM ATP
# Procedure, shortened: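 The enzyme complex (5 nM), expressed in co-infected insect cells, was incubated with recombinant Rb fragment, 25 μM radiolabelled ATP and 2% DMSO at 30 °C. Reactions were stopped with EDTA after 20 minutes, or 60 minutes for tight-binding inhibitors. Apparent Ki values came from competitive inhibition fits.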
# [3] = tested on: HCT-116 cell line; test: Inhibition of cell growth, tetrazolium salt (MTT) assay; format: cell-based; settings: for HCT-116 % Inhibition at 0.25 μM: 0.25 μM compound; for IC50: Homo sapiens, HCT-116, 120 h, MTT, three to five days, read-out: HCT-116 IC50
# Procedure, shortened: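 Growth inhibition is scored relative to cells receiving only 0.5% (v/v) DMSO. Plated cells rest 4 h, then take compound for three to five days at 37° C; MTT reduction to formazan is read at 540 nm.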
# [4] = 0.1 μM compound, HCT-116, Table 3
# Sequence of human CDK4 and genetically truncated (1-264) cyclin D3 (P11802 whole entry, the tested form may be a part): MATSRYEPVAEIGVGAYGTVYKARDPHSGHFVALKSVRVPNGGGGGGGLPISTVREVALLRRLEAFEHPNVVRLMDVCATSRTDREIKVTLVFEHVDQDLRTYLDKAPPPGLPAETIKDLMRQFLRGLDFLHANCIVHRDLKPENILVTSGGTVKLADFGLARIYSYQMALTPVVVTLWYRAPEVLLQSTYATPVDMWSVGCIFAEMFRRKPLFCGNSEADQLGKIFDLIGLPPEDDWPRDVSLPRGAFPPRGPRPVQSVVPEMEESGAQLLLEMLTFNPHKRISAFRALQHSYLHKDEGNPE
# Sequence of human CDK4 and genetically truncated (1-264) cyclin D3 (P30281 1-264 partner): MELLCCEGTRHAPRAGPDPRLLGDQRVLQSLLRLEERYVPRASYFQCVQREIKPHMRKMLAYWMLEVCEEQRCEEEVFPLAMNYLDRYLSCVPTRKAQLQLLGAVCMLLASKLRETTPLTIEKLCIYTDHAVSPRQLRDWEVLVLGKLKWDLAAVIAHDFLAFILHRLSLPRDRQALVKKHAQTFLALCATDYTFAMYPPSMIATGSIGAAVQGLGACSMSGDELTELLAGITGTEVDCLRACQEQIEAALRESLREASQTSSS
compound,measurement,setting,value
Nc1nc(NC2CCN(S(=O)(=O)/C=C/c3ccccc3)CC2)sc1C(=O)c1c(F)cccc1F [Example P26],CDK2 % Inhibition at 0.03 μM,"[1]; 0.03 μM compound, Table 3",37%
same,CDK4 % Inhibition at 0.03 μM,"[2]; 0.03 μM compound, Table 3",39%
same,HCT-116 % Inhibition at 0.1 μM,[3]; [4],4%
same,HCT-116 % Inhibition at 0.25 μM,"[3]; HCT-116, Table 3",23%
CN(CCO)c1ccc(S(=O)(=O)N2CCC(Nc3nc(N)c(C(=O)c4c(F)cccc4F)s3)CC2)cn1 [Example G10],Ki,[1],< 1 nM
same,Ki,[2],1.2 nM
same,IC50,[3]; first HCT-116 column (c4),670 nM
same,IC50,[3]; second HCT-116 column (c5),> 5000 nM
Nc1nc(NC2CCN(C(=O)Nc3ccccc3)CC2)sc1C(=O)c1c(F)cccc1F [Example O3],CDK2 % Inhibition At 0.03 μM,[1]; 0.03 μM compound,34%
same,CDK4 % Inhibition at 0.03 μM,"[2]; 0.03 μM compound, Table 2",6%
same,HCT-116 % Inhibition at 0.25 μM,"[3]; HCT-116, Table 2",0%
CC(=O)Nc1nc(C)c(S(=O)(=O)N2CCC(Nc3nc(N)c(C(=O)c4c(F)cccc4F)s3)CC2)s1 [Example P4],CDK2 % Inhibition at 0.03 μM,"[1]; 0.03 μM compound, Table 3",15%
same,CDK4 % Inhibition at 0.03 μM,"[2]; 0.03 μM compound, Table 3",32%
same,HCT-116 % Inhibition at 0.1 μM,[3]; [4],18%
same,HCT-116 % Inhibition at 0.25 μM,"[3]; HCT-116, Table 3",24%
N#Cc1cccc(C(=O)N2CCC(Nc3nc(N)c(C(=O)c4c(F)cccc4F)s3)CC2)c1 [Example R129],CDK2 % Inhibition at 0.03 μM,[1]; at 0.03 μM,41%
same,CDK4 % Inhibition at 0.03 μM,[2]; at 0.03 μM,62%
same,HCT-116 % Inhibition at 0.1 μM,"[3]; HCT-116 cells, at 0.1 μM",0%
same,HCT-116 5 Inhibition at 0.25 μM,[3]; HCT-116 cells,33
Nc1nc(NC2CCN(C(=O)c3cccc(C(F)(F)F)c3)CC2)sc1C(=O)c1c(F)cccc1F [Example Q24],CDK2 % Inhibition at 0.03 μM,"[1]; 0.03 μM compound, Table 4",31%
same,CDK4 % Inhibition at 0.03 μM,"[2]; 0.03 μM compound, Table 4",65%
same,HCT-116 % Inhibition at 0.1 μM,"[3]; 0.1 μM compound, HCT-116, Table 4",36%
same,HCT-116 % Inhibition at 0.25 μM,"[3]; HCT-116, Table 4",71%
Nc1nc(NC2CCN(C(=O)Nc3ccc(-c4ccccc4)cc3)CC2)sc1C(=O)c1c(F)cccc1F [Example O63],CDK2 % Inhibition At 0.03 μM,[1]; 0.03 μM compound,28%
same,CDK4 % Inhibition at 0.03 μM,"[2]; 0.03 μM compound, Table 2",4%
same,HCT-116 % Inhibition at 0.25 μM,"[3]; HCT-116, Table 2",40%
CCCCCCCOc1ccc(NC(=O)N2CCC(Nc3nc(N)c(C(=O)c4c(F)cccc4F)s3)CC2)cc1 [Example O83],CDK2 % Inhibition At 0.03 μM,[1]; 0.03 μM compound,29%
same,CDK4 % Inhibition at 0.03 μM,"[2]; 0.03 μM compound, Table 2",12%
same,HCT-116 % Inhibition at 0.25 μM,"[3]; HCT-116, Table 2",59%
Cc1cccc(NC(=O)N2CCC(Nc3nc(N)c(C(=O)c4c(F)cccc4F)s3)CC2)c1 [Example O17],CDK2 % Inhibition At 0.03 μM,[1]; 0.03 μM compound,32%
same,CDK4 % Inhibition at 0.03 μM,"[2]; 0.03 μM compound, Table 2",6%
same,HCT-116 % Inhibition at 0.25 μM,"[3]; HCT-116, Table 2",8%
Nc1nc(NC2CCN(S(=O)(=O)c3ccc(-c4ccccc4)cc3)CC2)sc1C(=O)c1c(F)cccc1F [Example P65],CDK2 % Inhibition at 0.03 μM,"[1]; 0.03 μM compound, Table 3",48%
same,CDK4 % Inhibition at 0.03 μM,"[2]; 0.03 μM compound, Table 3",65%
same,HCT-116 % Inhibition at 0.1 μM,[3]; [4],6%
same,HCT-116 % Inhibition at 0.25 μM,"[3]; HCT-116, Table 3",31%
CC(C)c1ccc(S(=O)(=O)N2CCC(Nc3nc(N)c(C(=O)c4c(F)cccc4F)s3)CC2)cc1 [Example P31],CDK2 % Inhibition at 0.03 μM,"[1]; 0.03 μM compound, Table 3",40%
same,CDK4 % Inhibition at 0.03 μM,"[2]; 0.03 μM compound, Table 3",50%
same,HCT-116 % Inhibition at 0.1 μM,[3]; [4],3%
same,HCT-116 % Inhibition at 0.25 μM,"[3]; HCT-116, Table 3",16%
Nc1nc(NC2CCN(S(=O)(=O)CCc3cccc4ccccc34)CC2)sc1C(=O)c1c(F)cccc1F [Example P76],CDK2 % Inhibition at 0.03 μM,"[1]; 0.03 μM compound, Table 3",9%
same,CDK4 % Inhibition at 0.03 μM,"[2]; 0.03 μM compound, Table 3",33%
same,HCT-116 % Inhibition at 0.1 μM,[3]; [4],23%
"Nc1nc(NC2CCN(S(=O)(=O)c3ccc(OCc4cccnc4)nc3)CC2)sc1C(=O)c1c(F)cccc1F [Example H8, 1-(4-Amino-2-{1-[6-(pyridin-3-ylmethoxy)-pyridine-3-sulfonyl]-piperidin-4-ylamino}-thiazol-5-yl)-1-(2,6-difluoro-phenyl)-methanone Trifluoroacetic Acid Salt]",Ki,[1],< 1 nM
same,Ki,[2],0.67 nM
same,IC50,[3]; first HCT-116 column (c4),580 nM
same,IC50,[3]; second HCT-116 column (c5),1300 nM
COc1ccc(C(=O)N2CCC(Nc3nc(N)c(C(=O)c4c(F)cccc4F)s3)CC2)c(OC)c1 [Example R116],CDK2 % Inhibition at 0.03 μM,[1]; at 0.03 μM,49%
same,CDK4 % Inhibition at 0.03 μM,[2]; at 0.03 μM,67%
same,HCT-116 % Inhibition at 0.1 μM,"[3]; HCT-116 cells, at 0.1 μM",9%
same,HCT-116 5 Inhibition at 0.25 μM,[3]; HCT-116 cells,44
